Data as given in patent US20250382305A1 (PTC THERAPEUTICS, INC., priority 2022, published 2025).

Assays:
[1] = tested on: ATXN3 pre-mRNA; assay: RT-qPCR Assay to Quantify Exon 4 Skipping in ATXN3 pre-mRNA in Cells; assay type: cell-based; conditions: percent exon 4 skipping in ATXN3 pre-mRNA, RT-qPCR of cell lysates; average IC50
Method in brief: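 IC50 derives from a dose-response fit of percent exon 4 skipping, quantified by RT-qPCR on crude lysates. Compounds tested as 7-point 3.16-fold dilutions in duplicate; cells (10,000/well) were exposed for 24 h at 37 °C before lysis.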

[2] = tested on: Total ATXN3 (tATXN3) protein; assay: Endogenous Total ATXN3 (tATXN3) Protein Assay (MSD immunoassay of cell lysates); assay type: cell-based; conditions: average IC50, total ATXN3 protein in cell lysate after 48 h with compound (Table 1)
Method in brief: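 By electrochemiluminescent MSD sandwich immunoassay (mouse monoclonal capture, rabbit monoclonal and SULFO-TAG anti-rabbit detection), endogenous ATXN3 was quantified in lysates of cells treated 48 h at 37° C at 10,000 cells/well. Treatment used a 7-point 3.16-fold duplicate dilution series, with average IC50 grouped into star categories.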

Compound	IC50 [1]	IC50 [2]
N[C@H]1CCCO[C@@H]1c1c(Br)c2nc(Cl)cc(NCc3ccco3)c2n1C(F)F [Compound 270, 2-((2S,3S)-3-aminotetrahydro-2H-pyran-2-yl)-3-bromo-5-chloro-1-(difluoromethyl)-N-(furan-2-ylmethyl)-1H-pyrrolo[3,2-b]pyridin-7-amine]	30 to 300 nM	30 to 300 nM
N[C@H]1CCCO[C@@H]1c1c(Cl)c2nc(Cl)nc(NCc3ccco3)c2n1C(F)F [Compound 271, 6-((2S,3S)-3-aminotetrahydro-2H-pyran-2-yl)-2,7-dichloro-5-(difluoromethyl)-N-(furan-2-ylmethyl)-5H-pyrrolo[3,2-d]pyrimidin-4-amine]	30 to 300 nM	30 to 300 nM
N[C@H]1CCCO[C@@H]1c1c(Cl)c2nc(Cl)cc(NCc3ccco3)c2n1C(F)F [Compound 273, 2-((2S,3S)-3-aminotetrahydro-2H-pyran-2-yl)-3,5-dichloro-1-(difluoromethyl)-N-(furan-2-ylmethyl)-1H-pyrrolo[3,2-b]pyridin-7-amine]	≤ 30 nM	30 to 300 nM
Cc1c([C@H]2CC=C(C(N)=O)C[C@@H]2N)sc2c(NCc3cccs3)cc(Cl)nc12 [Compound 274, (4S,5S)-5-amino-4-(5-chloro-3-methyl-7-((thiophen-2-ylmethyl)amino)thieno[3,2-b]pyridin-2-yl)cyclohex-1-ene-1-carboxamide]	30 to 300 nM	30 to 300 nM
N[C@H]1CC=CC[C@@H]1c1c(I)c2nc(Cl)nc(NCc3ccco3)c2n1C(F)F [Compound 276, 6-((1S,6S)-6-aminocyclohex-3-en-1-yl)-2-chloro-5-(difluoromethyl)-N-(furan-2-ylmethyl)-7-iodo-5H-pyrrolo[3,2-d]pyrimidin-4-amine]	30 to 300 nM	30 to 300 nM
CCOC(=O)C1=CC[C@H](c2sc3c(NCc4cccs4)cc(Cl)nc3c2C)[C@@H](N)C1 [Compound 277, ethyl (4S,5S)-5-amino-4-(5-chloro-3-methyl-7-((thiophen-2-ylmethyl)amino)thieno[3,2-b]pyridin-2-yl)cyclohex-1-ene-1-carboxylate]	≤ 30 nM	30 to 300 nM
Cc1c([C@H]2CCCC[C@@H]2N)sc2c(NCc3ccccc3)cc(Cl)nc12 [Compound 280, 2-((1S,2S)-2-aminocyclohexyl)-N-benzyl-5-chloro-3-methylthieno[3,2-b]pyridin-7-amine]	30 to 300 nM	30 to 300 nM
N[C@H]1CCCO[C@@H]1c1c(Br)c2nc(Cl)cc(NCc3cccs3)c2n1C(F)F [Compound 281, 2-((2S,3S)-3-aminotetrahydro-2H-pyran-2-yl)-3-bromo-5-chloro-1-(difluoromethyl)-N-(thiophen-2-ylmethyl)-1H-pyrrolo[3,2-b]pyridin-7-amine]	30 to 300 nM	30 to 300 nM
CC#CCNc1cc(Cl)nc2c(I)c([C@H]3CCCC[C@@H]3N)sc12 [Compound 283, 2-((1S,2S)-2-aminocyclohexyl)-N-(but-2-yn-1-yl)-5-chloro-3-iodothieno[3,2-b]pyridin-7-amine]	30 to 300 nM	30 to 300 nM
N[C@H]1COCC[C@@H]1c1sc2c(NCc3nccs3)cc(Cl)nc2c1Br [Compound 285, 2-((3R,4S)-3-aminotetrahydro-2H-pyran-4-yl)-3-bromo-5-chloro-N-(thiazol-2-ylmethyl)thieno[3,2-b]pyridin-7-amine]	30 to 300 nM	30 to 300 nM
N[C@H]1CC=CC[C@@H]1c1sc2c(NCc3ccccc3F)cc(Cl)nc2c1Br [Compound 287, 2-((1S,6S)-6-aminocyclohex-3-en-1-yl)-3-bromo-5-chloro-N-(2-fluorobenzyl)thieno[3,2-b]pyridin-7-amine]	30 to 300 nM	30 to 300 nM
Cc1c([C@H]2CC=CC[C@@H]2N)sc2c(NCc3ccco3)cc(C#N)nc12 [Compound 289, 2-((1S,6S)-6-aminocyclohex-3-en-1-yl)-7-((furan-2-ylmethyl)amino)-3-methylthieno[3,2-b]pyridine-5-carbonitrile]	30 to 300 nM	30 to 300 nM
N[C@H]1CCCC(F)(F)[C@@H]1c1sc2c(NCc3cccs3)cc(Cl)nc2c1Cl [Compound 291, 2-((1R,6S)-6-amino-2,2-difluorocyclohexyl)-3,5-dichloro-N-(thiophen-2-ylmethyl)thieno[3,2-b]pyridin-7-amine]	30 to 300 nM	30 to 300 nM
[2H]C1=C([2H])C([2H])([2H])[C@H](c2sc3c(NCc4ccccc4)cc(Cl)nc3c2C)[C@@H](N)C1([2H])[2H] [Compound 292, 2-((1S,6S)-6-aminocyclohex-3-en-1-yl-2,2,3,4,5,5-d6)-N-benzyl-5-chloro-3-methylthieno[3,2-b]pyridin-7-amine]	30 to 300 nM	30 to 300 nM
N[C@@H]1CCCC[C@H]1c1sc2c(NCc3ccco3)cc(Cl)nc2c1Cl [Compound 296, 2-((1R,2R)-2-aminocyclohexyl)-3,5-dichloro-N-(furan-2-ylmethyl)thieno[3,2-b]pyridin-7-amine]	30 to 300 nM	30 to 300 nM
N[C@H]1[C@H](O)CCC[C@@H]1c1sc2c(NCc3cccs3)cc(Cl)nc2c1Cl [Compound 298, (1R,2R,3S)-2-amino-3-(3,5-dichloro-7-((thiophen-2-ylmethyl)amino)thieno[3,2-b]pyridin-2-yl)cyclohexan-1-ol]	30 to 300 nM	30 to 300 nM
N[C@@H]1CC=CC[C@H]1c1sc2c(NCc3ccco3)cc(Cl)nc2c1Cl [Compound 299, 2-((1R,6R)-6-aminocyclohex-3-en-1-yl)-3,5-dichloro-N-(furan-2-ylmethyl)thieno[3,2-b]pyridin-7-amine]	30 to 300 nM	30 to 300 nM
CC#CCNc1cc(Cl)nc2c(Br)c([C@H]3CCCC[C@@H]3N)sc12 [Compound 301, 2-((1S,2S)-2-aminocyclohexyl)-3-bromo-N-(but-2-yn-1-yl)-5-chlorothieno[3,2-b]pyridin-7-amine]	30 to 300 nM	30 to 300 nM
C/C=C/CNc1cc(Cl)nc2c(Cl)c([C@H]3CC=CC[C@@H]3N)sc12 [Compound 302, 2-((1S,6S)-6-aminocyclohex-3-en-1-yl)-N-((E)-but-2-en-1-yl)-3,5-dichlorothieno[3,2-b]pyridin-7-amine]	30 to 300 nM	30 to 300 nM
CN[C@H]1CC=CC[C@@H]1c1sc2c(NCc3cccs3)cc(Cl)nc2c1C#CCCO [Compound 303, 4-(5-chloro-2-((1S,6S)-6-(methylamino)cyclohex-3-en-1-yl)-7-((thiophen-2-ylmethyl)amino)thieno[3,2-b]pyridin-3-yl)but-3-yn-1-ol]	30 to 300 nM	30 to 300 nM
N[C@H]1CCCC[C@@H]1c1c(I)c2nc(Cl)nc(NCc3ccco3)c2n1C(F)F [Compound 304, 6-((1S,2S)-2-aminocyclohexyl)-2-chloro-5-(difluoromethyl)-N-(furan-2-ylmethyl)-7-iodo-5H-pyrrolo[3,2-d]pyrimidin-4-amine]	30 to 300 nM	30 to 300 nM
N[C@H]1CCCO[C@@H]1c1c(Cl)c2nc(Cl)nc(NCc3cccs3)c2n1C(F)F [Compound 305, 6-((2S,3S)-3-aminotetrahydro-2H-pyran-2-yl)-2,7-dichloro-5-(difluoromethyl)-N-(thiophen-2-ylmethyl)-5H-pyrrolo[3,2-d]pyrimidin-4-amine]	30 to 300 nM	30 to 300 nM
CC#CCNc1cc(Cl)nc2c(C)c([C@H]3CC=CC[C@@H]3N)sc12 [Compound 306, 2-((1S,6S)-6-aminocyclohex-3-en-1-yl)-N-(but-2-yn-1-yl)-5-chloro-3-methylthieno[3,2-b]pyridin-7-amine]	30 to 300 nM	30 to 300 nM
N[C@H]1CC=CC[C@@H]1c1sc2c(NCc3cccs3)cc(Cl)nc2c1C#Cc1cccnc1 [Compound 307, 2-((1S,6S)-6-aminocyclohex-3-en-1-yl)-5-chloro-3-(pyridin-3-ylethynyl)-N-(thiophen-2-ylmethyl)thieno[3,2-b]pyridin-7-amine]	30 to 300 nM	30 to 300 nM
CC#CCNc1cc(Cl)nc2c(Cl)c([C@H]3CCCC[C@@H]3N)sc12 [Compound 308, 2-((1S,2S)-2-aminocyclohexyl)-N-(but-2-yn-1-yl)-3,5-dichlorothieno[3,2-b]pyridin-7-amine]	30 to 300 nM	30 to 300 nM
N[C@@H]1CC=CC[C@H]1c1sc2c(NCc3ccco3)cc(Cl)nc2c1Br [Compound 310, 2-((1R,6R)-6-aminocyclohex-3-en-1-yl)-3-bromo-5-chloro-N-(furan-2-ylmethyl)thieno[3,2-b]pyridin-7-amine]	30 to 300 nM	30 to 300 nM
C#Cc1c([C@H]2CCCC[C@@H]2N)sc2c(NCc3ccccc3F)cc(Cl)nc12 [Compound 311, 2-((1S,2S)-2-aminocyclohexyl)-5-chloro-3-ethynyl-N-(2-fluorobenzyl)thieno[3,2-b]pyridin-7-amine]	30 to 300 nM	30 to 300 nM
Cc1c([C@H]2CC=C(C(=O)N(C)C)C[C@@H]2N)sc2c(NCc3cccs3)cc(Cl)nc12 [Compound 312, (4S,5S)-5-amino-4-(5-chloro-3-methyl-7-((thiophen-2-ylmethyl)amino)thieno[3,2-b]pyridin-2-yl)-N,N-dimethylcyclohex-1-ene-1-carboxamide]	30 to 300 nM	30 to 300 nM
Cc1c([C@H]2CC=C(C(=O)N3CCOCC3)C[C@@H]2N)sc2c(NCc3cccs3)cc(Cl)nc12 [Compound 313, ((4S,5S)-5-amino-4-(5-chloro-3-methyl-7-((thiophen-2-ylmethyl)amino)thieno[3,2-b]pyridin-2-yl)cyclohex-1-en-1-yl)(morpholino)methanone]	30 to 300 nM	30 to 300 nM
